Patent US20150174158A1, “[…] NITRIC OXIDE FOR TREATING RESPIRATORY DISEASES” (Advanced Inhalation Therapies (AIT) Ltd., priority 2012, published 2015)

What was measured:
[1] = tested on: all microorganisms tested; conditions: 200 ppm gNO, cited from earlier work
broad range of microbes = conditions: gNO at 160-200 ppm; in vitro, ex vivo and in animal models; cited from earlier work
Serracia sp. = conditions: 200 ppm gNO; saline; cited from earlier work
[2] = gNO concentrations below 200 ppm, 6 hours/day for 28 days; cited from earlier work
Klebsiella sp. #3 = conditions: 200 ppm gNO; saline; cited from earlier work
Klebsiella sp. #1 = conditions: 200 ppm gNO; saline; cited from earlier work
[3] = tested on: human respiratory syncytial virus (rgRSV30); assay: RSV plaque assay after 30 min exposure to 160 ppm gNO; format: cell-based; conditions: single 30 min exposure to 160 ppm gNO; starting 500 PFU
Method: The efficacy of treating viral infection by respiratory syncytial virus by the methods presented herein was tested by exposure for 30 minutes of human respiratory syncytial virus (rgRSV30) to a gas mixture containing 160 ppm nitric oxide, using standard plaque assay as described hereinabove.
FIGS. 3A-D present the data obtained in the experiment using tissue culture samples harboring human rgRSV30, coupled to a green fluorescent protein, wherein the control experiment the samples were exposed to a ambient air (data not shown), and the tested samples having a starting viral level of 2000 PFU (FIG. 3A), 1000 PFU (FIG. 3B) and 500 PFU (FIG. 3C), were exposed to 160 ppm gNO for 30 minutes, whereas FIG. 3D presents a comparative bar plot comparing the control to test results.

Acinetobacter sp. = conditions: 200 ppm gNO; saline; cited from earlier work
S. aureus (Clinical) = conditions: 200 ppm gNO; saline; cited from earlier work
[4] = continuous delivery of 80 ppm; cited from earlier work
[5] = Phase I open label safety study of intermittent 160 ppm gNO inhalation: adverse events, vital signs, oxygenation, NO2; format: in vivo, human
Description: 10 healthy adult volunteer subjects (5 males, 5 females), aged 20 to 62 years, were enrolled in the study after screening their medical history, a physical examination, pulmonary function tests and blood values. Exclusion criteria included individuals less than 19 years of age, pregnant females and unwilling to practice birth control during the study, diagnosed with pulmonary disease, epistaxis, hemoptysis, methemoglobinemia, organ transplant recipient or receiving antibiotic therapy.
After obtaining informed consent, treatment was initiated within 5 days of enrollment. Subjects were housed in a hospital ward and received 160 ppm gNO for 30 minutes every four hours (Q4h), five times a day, for five consecutive days by inhalation. Subjects returned for follow-up evaluations 3, 7 and 21 days after the final gNO administration. Subject safety was determined by monitoring vital signs, methemoglobin levels, lung function, blood chemistry, hematology, prothrombin time, inflammatory cytokine/chemokines levels and endothelial activation. These parameters were compared to baseline and at various time-points during and after gNO administration.
Subjects were administered gNO through a modified disposable mouthpiece to maximize mixing. Inspiration was spontaneously initiated by the subject from a conventional intermittent positive pressure breathing respirator (Mark-7, Carefusion, USA) in fixed flow mode delivering 48 liters per minute (LPM). Flows of gas were verified with a calibrated mass flow meter (TSI, USA). Gaseous nitric oxide (gNO, obtained at INOmax, Ikaria, USA) at a concentration of 800 ppm delivered at a flow of 12 LPM was titrated into a distal delivery port on the mouth piece connected to the respirator during inspiratory phase only (pressure switch). The Mark 7 respirator was supplied by an air/oxygen blender (Bird Sentry, Carefusion, USA) set to deliver 26% oxygen.
The levels of gNO, NO2, O2 and methemoglobin were monitored during the administration of gNO. […] Inspiratory NO, NO2 and O2 levels were continuously monitored by sampling from the mouthpiece sample port located about 6 millimeters from the mouth of the subject with an AeroNOx (Pulmonox, AB, Canada) NO, NO2 and O2 electrochemical analyzer. Delivery safety was determined by the number of occasions that NO2 exceeded 5 ppm, gNO exceeding 10% variation and O2 dropping below 20% during gNO administration. […]
General medical examinations were performed by a pulmonary physician on screening and on days 8, 12 and 26 to obtain oxygenation and vital sign measurements. […] Oxygenation was measured with a pulse oximeter (Rad 57, Masimo Corporation, USA) which was used according to manufacturer's guidelines to measure functional oxygen saturation of arterial hemoglobin (SpO2) and heart rate. These parameters were measured continuously during every gNO administration and for 3.5 hours after the first treatment of the day. Cardiovascular status was determined by monitoring heart rate, blood pressure, respiratory rate and temperature. Values were recorded prior to the start of each gNO administration, following a 5 minute rest. During treatments, vital signs (except temperature) were also performed 15 minutes after the start of the treatment and at the end of gNO administration and recorded. After the first treatment each day, vital signs were recorded at every 30 minutes until the start of the second gNO administration of the day.

Mycobacterium = conditions: 200 ppm gNO; saline; cited from earlier work

Structure (SMILES): [N]=O [gNO, nitric oxide]
- bactericidal effect ([1]; all microorganisms tested): complete bactericidal effect
- reduction in CFU/mL ([1]; every bacteria challenged): ≥ 3 login CFU/mL
- antimicrobial effects (broad range of microbes): potent antimicrobial effects
- LD100 (Serracia sp.): 6 h
- Latent Period (Serracia sp.): 4 h
- −2.5 Log10 (Serracia sp.): 4.9 hours
- deaths [2]: No deaths occurred
- LD100 (Klebsiella sp. #3): 6 h
- Latent Period (Klebsiella sp. #3): 3 h
- −2.5 Log10 (Klebsiella sp. #3): 5.1 hours
- LD100 (Klebsiella sp. #1): 6 h
- Latent Period (Klebsiella sp. #1): 3 h
- −2.5 Log10 (Klebsiella sp. #1): 3.5 hours
- viral viability [3]: substantially nullified
- LD100 (Acinetobacter sp.): 6 h
- Latent Period (Acinetobacter sp.): 4 h
- −2.5 Log10 (Acinetobacter sp.): 5 hours
- LD100 (S. aureus (Clinical)): 4 h
- Latent Period (S. aureus (Clinical)): 3 h
- −2.5 Log10 (S. aureus (Clinical)): 3.7 hours
- NO2 level [4]: 2.6 ppm
- minor adverse events ([5]; 160 ppm gNO 30 min, 5 times a day, 5 days, 10 healthy adults): Three minor adverse events were reported
- significant adverse events ([5]; 160 ppm gNO 30 min, 5 times a day, 5 days, 10 healthy adults, 250 administrations): no significant adverse events were observed
- vital signs ([5]; during and after gNO administration, 160 ppm): remained within normal limits
- lowest observed SpO2 ([5]; during or after 160 ppm gNO administration): 93%
- mean NO2 level during the treatments ([5]; inspired gas at mouthpiece, 160 ppm gNO, 95% confidence level 2.17-2.47): 2.32 ppm
- LD100 (Mycobacterium): 10 h
- Latent Period (Mycobacterium): 7 h
- −2.5 Log10 (Mycobacterium): 9.2 hours
